Measured values as given in the supplement of paper PMC10307832.

Tests used:
Test in all cases: relative viability (nuclei count vs DMSO), 5 days (fraction); higher = more cells survive
LCLC-97TM1 = conditions: first compound 4 µM
Outline: (§1)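 Medians of duplicate plates are given as relative viability. That measure is the nuclei count in treated wells divided by the count in vehicle wells. Counts were taken on 4× images of lung cancer cell lines in 1536-well plates, 5 days after pin-tool dosing the day after seeding with one drug alone or a fixed anchor-drug dose plus five library-drug doses (not always all listed) in √10 steps.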

NCI-H2087 = test system: NCI-H2087
Outline: as §1

EPLC-272H = test system: EPLC-272H
Outline: as §1

NCI-H358 = test system: NCI-H358
Outline: as §1

H3255 = test system: H3255
Outline: as §1

HCC-44 = test system: HCC-44
Outline: as §1

LOU-NH91 = test system: LOU-NH91
Outline: as §1

EKVX = test system: EKVX
Outline: as §1

NCI-H1395 = test system: NCI-H1395
Outline: as §1

NCI-H1666 = test system: NCI-H1666
Outline: as §1

NCI-H2342 = test system: NCI-H2342
Outline: as §1

BEN = test system: BEN
Outline: as §1

HOP-62 = test system: HOP-62
Outline: as §1

COc1cc(N2CCC(C(N)=O)CC2)ccc1Nc1nc(N)c(Cl)c(Nc2ccccc2S(=O)(=O)C(C)C)n1 [HG-5-88-01] + N=C(N)NC(=N)NCCc1ccccc1 [Phenformin] (partner 250 µM)
relative viability (LCLC-97TM1): 0.204 | relative viability (NCI-H2087; first compound 0.04 µM): 0.523 | relative viability (NCI-H2087; first compound 0.1265 µM): 0.49 | relative viability (NCI-H2087; first compound 0.4 µM): 0.469 | relative viability (NCI-H2087; first compound 1.265 µM): 0.342 | relative viability (NCI-H2087; first compound 4 µM): 0.319 | relative viability (EPLC-272H; first compound 0.04 µM): 0.352 | relative viability (EPLC-272H; first compound 0.1265 µM): 0.34 | relative viability (EPLC-272H; first compound 0.4 µM): 0.274 | relative viability (EPLC-272H; first compound 1.265 µM): 0.253 | relative viability (EPLC-272H; first compound 4 µM): 0.0477 | relative viability (NCI-H358; first compound 0.04 µM): 0.268 | relative viability (NCI-H358; first compound 0.1265 µM): 0.246 | relative viability (NCI-H358; first compound 0.4 µM): 0.216 | relative viability (NCI-H358; first compound 1.265 µM): 0.129 | relative viability (NCI-H358; first compound 4 µM): 0.139 | relative viability (H3255; first compound 0.04 µM): 0.381 | relative viability (H3255; first compound 0.1265 µM): 0.325 | relative viability (H3255; first compound 0.4 µM): 0.332 | relative viability (H3255; first compound 4 µM): 0.32 | relative viability (HCC-44; first compound 0.04 µM): 0.303 | relative viability (HCC-44; first compound 0.1265 µM): 0.156 | relative viability (HCC-44; first compound 0.4 µM): 0.201 | relative viability (HCC-44; first compound 1.265 µM): 0.159 | relative viability (HCC-44; first compound 4 µM): 0.0886 | relative viability (LOU-NH91; first compound 0.04 µM): 0.701 | relative viability (LOU-NH91; first compound 0.1265 µM): 0.721 | relative viability (LOU-NH91; first compound 0.4 µM): 0.664 | relative viability (LOU-NH91; first compound 1.265 µM): 0.421 | relative viability (LOU-NH91; first compound 4 µM): 0.416 | relative viability (EKVX; first compound 0.04 µM): 0.276 | relative viability (EKVX; first compound 0.1265 µM): 0.262 | relative viability (EKVX; first compound 0.4 µM): 0.204 | relative viability (EKVX; first compound 4 µM): 0.226 | relative viability (NCI-H1395; first compound 0.04 µM): 0.423 | relative viability (NCI-H1395; first compound 0.1265 µM): 0.422 | relative viability (NCI-H1395; first compound 0.4 µM): 0.45 | relative viability (NCI-H1395; first compound 1.265 µM): 0.449 | relative viability (NCI-H1395; first compound 4 µM): 0.463 | relative viability (NCI-H1666; first compound 0.04 µM): 0.581 | relative viability (NCI-H1666; first compound 0.1265 µM): 0.57 | relative viability (NCI-H1666; first compound 0.4 µM): 0.544 | relative viability (NCI-H1666; first compound 1.265 µM): 0.558 | relative viability (NCI-H1666; first compound 4 µM): 0.459 | relative viability (NCI-H2342; first compound 0.04 µM): 0.464 | relative viability (NCI-H2342; first compound 0.1265 µM): 0.538 | relative viability (NCI-H2342; first compound 0.4 µM): 0.614 | relative viability (NCI-H2342; first compound 1.265 µM): 0.506 | relative viability (NCI-H2342; first compound 4 µM): 0.6 | relative viability (BEN; first compound 0.04 µM): 0.304 | relative viability (BEN; first compound 0.1265 µM): 0.271 | relative viability (BEN; first compound 0.4 µM): 0.274 | relative viability (BEN; first compound 1.265 µM): 0.267 | relative viability (BEN; first compound 4 µM): 0.285 | relative viability (HOP-62; first compound 0.04 µM): 0.662 | relative viability (HOP-62; first compound 0.1265 µM): 0.65 | relative viability (HOP-62; first compound 0.4 µM): 0.654 | relative viability (HOP-62; first compound 1.265 µM): 0.725 | relative viability (HOP-62; first compound 4 µM): 0.718
